Data taken from patent US10701876B2, “Production of plants using somatic embryogenesis” (MARS, INCORPORATED, priority 2013, dated 2020).

Tested on: Theobroma cacao L. CCN-10 clones, primary somatic embryo epicotyl/cotyledon explants
Test: Direct secondary somatic embryogenesis from primary somatic embryo explants (hormone balance and stressor test)
Type: cell-based
Protocol: For the production of secondary embryos, epicotyls are taken from primary somatic embryos with size 1 cm and 40 mg of weight and they were cut in 10-15 pieces and placed into flask with 25 ml of liquid medium for embryogenic induction (Table 5) with some modifications in the experimental design (Table 7) per 5 weeks (step c). The culture is exposed to a light:dark 16:8 photoperiod, at a temperature of 27±2° C. and photosynthetic active radiation (PAR) or photosynthetic photon flux density (PPFD) of 50-190 μmol/m^2 per second. After this period, the somatic embryos in globular stage are transferred into the Petri dish in semi-solid developing media (Table 6) with some modifications (Table 8), with a 21-day culture period in light conditions until the embryos express and develop to the heart or early torpedo stage. Afterward, the cultures were transferred into the Petri dish in the same medium, but without gibberellic acid and with the same culture conditions but in the dark with transferences every 14 days for embryo's maturation. A variety of media were tested to assess the concentrations of plant hormones and stressors to be used in direct secondary somatic embryogenesis, as set forth in the following tables: [table] [table] Cotyledon explants were collected 40 days after induction and were used for study. Samples were fixed with FAA [10% formalin, 5% acetic acid, 50% ethanol (v/v)] per 8 days. The sample must be previously cut into approximately 0.5 to 1.0 mm. Do three (3) washes of 5 minutes each with distilled water or buffer to remove the fixative. […] the material in increasing concentrations of ethanol for at least 1 h of 70%, 85% and 95% at room temperature (incubation time varies with the kind of the material). Since the experiments were established, evaluations have been performed every 14 days, and some dependent variables like: number of calluses formed, number of normal embryos without callus formation, number of abnormal embryos without callus formation, number of pro-embryogenic masses, number of torpedo embryos, number of heart embryos, number of globular embryos, and overall observations. The Dino-Lite digital microscope premier, AM4113/AD4113 series was used for the observations. The experiment was a sequence of mediums where the first was induction medium (Table 7) followed by combination with develop medium (Table 8). The factorial analysis was 5×2, in view of the testing of 2 sucrose concentrations (40 and 80 g/l) and 5 gibberellic acid concentrations (0.0, 0.2, 0.4, 0.6 and 1.0 mg/l), using a completely randomized design.

Compound	direct somatic embryos developed by embryonic regions of cotyledon explants (histological analysis) (induction medium with 1.0 mg/L BAP and 40 g/L sucrose, 40 days of culture (FIG. 5))	quantity of abnormal embryos (1 mg/l gibberellic acid and 40 g/l sucrose in development medium, compared with the other treatments (FIG. 4))	expression of direct somatic embryos (number of embryos produced) (different concentrations of gibberellic acid in combination with 40 g/L or 80 g/L sucrose (FIG. 4))	normal embryos (sequence of media: induction 1.0 mg/l BAP + 40 g/l sucrose, light, 40 days, then 0.6 mg/l gibberellic acid + 40 g/l sucrose, light, 21 days, then same medium without gibberellic acid, darkness) [%]
c1ccc(CNc2ncnc3nc[nH]c23)cc1 [BAP, 6-benzylaminopurine]	large numbers of direct somatic embryos in globular and heart stage			
C=C1C[C@]23C[C@@]1(O)CC[C@H]2[C@@]12C=C[C@H](O)[C@@](C)(C(=O)O1)[C@H]2[C@@H]3C(=O)O [gibberellic acid]		highest quantity of abnormal embryos	influenced the expression of direct somatic embryos	83.3
